From US20250127780A1, “IMIDAZO[4,5-B]PYRIDINE AND PYRAZOLO[1,5-A]PYRIMIDINE DERIVATIVES AS SIK MODULATORS FOR THE TREATMENT OF RHEUMATOID ARTHRITIS” (Hoffmann-La Roche Inc., priority 2022, published 2025)

Assays:
Type in all cases: biochemical
SIK1 = SIK1 (Homo sapiens (Human), UniProt P57059); experiment: Phosphorylation assay SIK1 (RapidFire mass spectrometry); settings: 5 nM SIK1, CHK-peptide, ATP, 30 min pre-incubation, 45 min incubation; read-out: SIK1 RF IC50
Description: (§1) In the presence of SIK2 (resp. SIK1 or SIK3) and ATP the CHK-peptide ([…] with C-terminal arginine amide modification) were phosphorylated at one of the four feasible serine's. Only one phosphorylation is observed under the assay conditions. 60 nl of each compound dilution series (12 point; dilution factor 3, generally 30 μM to 170 pM) in DMSO were transferred by acoustic dispensing to the assay plate and 30 minutes pre-incubated (ambient temperature) after the addition of 5 μl SIK1 (5 nM) resp. 5 μl SIK2 (0.5 nM) or 7 μl SIK3 (1.5 nM) in assay-buffer (12.5 mM HEPES (pH 7.0), 10 mM magnesium acetate, 0.005% BSA). 10 μM CHK-peptide solution and 5 μl of 100 μM ATP for SIK1 & SIK2 resp. 3 μl for SIK3 in assay-buffer were added and incubated ambient for 45 minutes. 40 μl of 0.125% formic acid in water were added to quench the reaction. RapidFire (RF) Mass Spectrometry was utilized for data generation as described below. The multiple charged species (3-5 charges) for the phosphorylated and non-phosphorylated form measured by MRM (Multiple Reaction Monitoring; API5000 or 6500+) or EIC (Extracted Ion Current; QToF) were summed up and the ratio calculated (sum phosphorylated species/sum all species) for data evaluation. Normalization was performed by Genedata software based on the non-inhibition control DMSO and the commercially available SIK inhibitor @1 μM YKL-05-099 (CAS number 1936529-65-5). The results of the assay are expressed in half-maximal inhibitory concentrations (IC50s) and are summarized below in Table 1.
(§2) Samples were aspirated by vacuum for max. 600 ms and loaded to C4-cartridge (Agilent; #G9203A) for 3000 ms@1.5 ml/min with 0.1% formic acid in water. Afterwards samples were transferred to the API5000 (API6500+) or QToF mass spectrometer for 4000 ms@1.25 ml/min with 90% acetonitrile; 10% water; 0.007% TFA; 0.093 formic acid. The cartridge was reconditioned for additional 500 ms with 0.1% formic acid in water.
(§3) All MS analyses using the following MS-setup in MRM mode: Electrospray positive; Ion Spray Voltage: 4000V; Temperature: 550° C.; Collision Gas: 5; Curtain Gas: 15; Gas 1: 40; Gas 2: 42; EP: 10. DP=declustering potential; CE=collision energy; CXP=cell exit potential.
(§4) All MS analyses using the following MS-setup in Mode MS: Dual AJS Electrospray positive; VCap: 3000V; Drying & Sheath gas: 340° C.@81/min; Nebulizer: 60 psig; Nozzle Voltage: 2000V; Fragmentor: 130V; Skimmer: 35V; Oct1 RF Vpp: 700V; Ref masses on@5spectra/s

SIK2 = SIK2 (Homo sapiens (Human), UniProt Q9H0K1); experiment: Phosphorylation assay SIK2 (RapidFire mass spectrometry); settings: 0.5 nM SIK2, CHK-peptide, ATP, 30 min pre-incubation, 45 min incubation; read-out: SIK2 RF IC50
SIK2, sequence (Q9H0K1 whole entry): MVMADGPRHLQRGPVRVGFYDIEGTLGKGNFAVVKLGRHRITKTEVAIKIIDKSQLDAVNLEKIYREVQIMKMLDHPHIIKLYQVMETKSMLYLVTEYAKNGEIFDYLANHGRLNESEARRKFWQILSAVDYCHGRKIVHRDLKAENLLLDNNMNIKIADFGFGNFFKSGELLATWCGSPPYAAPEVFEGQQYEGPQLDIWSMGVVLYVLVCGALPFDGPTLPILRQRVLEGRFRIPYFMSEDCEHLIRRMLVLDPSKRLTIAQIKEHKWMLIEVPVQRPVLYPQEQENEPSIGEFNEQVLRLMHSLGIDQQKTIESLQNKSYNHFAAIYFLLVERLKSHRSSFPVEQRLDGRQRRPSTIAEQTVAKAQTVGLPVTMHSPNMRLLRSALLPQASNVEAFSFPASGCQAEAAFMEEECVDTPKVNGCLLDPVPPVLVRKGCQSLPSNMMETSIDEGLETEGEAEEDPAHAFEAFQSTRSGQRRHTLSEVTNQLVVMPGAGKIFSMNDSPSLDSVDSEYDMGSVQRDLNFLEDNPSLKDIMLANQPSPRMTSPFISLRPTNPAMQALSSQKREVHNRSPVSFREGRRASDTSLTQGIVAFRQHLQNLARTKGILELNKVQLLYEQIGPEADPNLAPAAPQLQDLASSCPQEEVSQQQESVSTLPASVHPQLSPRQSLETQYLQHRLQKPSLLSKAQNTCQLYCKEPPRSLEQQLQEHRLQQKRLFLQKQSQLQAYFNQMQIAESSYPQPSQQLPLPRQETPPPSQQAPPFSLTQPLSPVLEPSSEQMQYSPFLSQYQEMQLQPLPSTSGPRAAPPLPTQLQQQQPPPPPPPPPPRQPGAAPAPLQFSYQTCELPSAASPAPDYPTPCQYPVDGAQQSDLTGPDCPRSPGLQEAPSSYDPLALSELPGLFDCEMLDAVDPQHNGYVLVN
Description: as §1, §2, §3, §4

SIK3 = SIK3 (Homo sapiens (Human), UniProt Q9Y2K2); experiment: Phosphorylation assay SIK3 (RapidFire mass spectrometry); settings: 1.5 nM SIK3, CHK-peptide, ATP, 30 min pre-incubation, 45 min incubation; read-out: SIK3 RF IC50
SIK3, sequence (Q9Y2K2 whole entry): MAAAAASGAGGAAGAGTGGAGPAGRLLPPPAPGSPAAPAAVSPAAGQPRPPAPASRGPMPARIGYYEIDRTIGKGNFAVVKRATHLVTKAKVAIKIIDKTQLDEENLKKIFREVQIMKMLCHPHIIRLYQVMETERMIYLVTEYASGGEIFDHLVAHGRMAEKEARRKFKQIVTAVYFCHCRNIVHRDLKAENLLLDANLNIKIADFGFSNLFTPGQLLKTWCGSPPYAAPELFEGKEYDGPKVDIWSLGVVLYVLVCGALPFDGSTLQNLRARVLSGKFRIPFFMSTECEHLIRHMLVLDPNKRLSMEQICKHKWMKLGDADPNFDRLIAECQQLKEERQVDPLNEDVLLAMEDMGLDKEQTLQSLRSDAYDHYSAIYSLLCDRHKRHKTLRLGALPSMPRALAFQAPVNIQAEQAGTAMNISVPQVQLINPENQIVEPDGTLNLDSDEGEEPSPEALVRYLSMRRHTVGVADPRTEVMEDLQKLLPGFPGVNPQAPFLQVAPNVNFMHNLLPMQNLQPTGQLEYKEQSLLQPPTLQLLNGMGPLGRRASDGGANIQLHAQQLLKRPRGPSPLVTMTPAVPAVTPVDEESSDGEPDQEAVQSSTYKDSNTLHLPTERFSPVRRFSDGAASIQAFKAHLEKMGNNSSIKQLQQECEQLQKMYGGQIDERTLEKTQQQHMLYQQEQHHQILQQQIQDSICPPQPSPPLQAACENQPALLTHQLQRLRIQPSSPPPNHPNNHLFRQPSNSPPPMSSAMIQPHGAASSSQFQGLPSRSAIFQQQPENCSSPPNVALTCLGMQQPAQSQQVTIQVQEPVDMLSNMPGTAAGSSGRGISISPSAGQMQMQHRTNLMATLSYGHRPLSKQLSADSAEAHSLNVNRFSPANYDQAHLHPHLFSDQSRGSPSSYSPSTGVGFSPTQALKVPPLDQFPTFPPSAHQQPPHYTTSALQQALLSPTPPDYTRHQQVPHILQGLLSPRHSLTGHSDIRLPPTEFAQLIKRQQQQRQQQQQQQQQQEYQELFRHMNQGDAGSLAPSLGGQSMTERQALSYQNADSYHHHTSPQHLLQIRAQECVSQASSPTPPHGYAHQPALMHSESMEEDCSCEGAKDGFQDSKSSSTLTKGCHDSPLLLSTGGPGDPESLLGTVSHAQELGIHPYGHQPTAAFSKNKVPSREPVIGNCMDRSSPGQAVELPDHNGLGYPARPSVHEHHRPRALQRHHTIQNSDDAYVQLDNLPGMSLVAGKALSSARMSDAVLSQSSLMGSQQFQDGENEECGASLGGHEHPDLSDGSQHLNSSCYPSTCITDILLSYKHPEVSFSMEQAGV
Description: as §1, §2, §3, §4

SIK1, sequence (P57059 whole entry): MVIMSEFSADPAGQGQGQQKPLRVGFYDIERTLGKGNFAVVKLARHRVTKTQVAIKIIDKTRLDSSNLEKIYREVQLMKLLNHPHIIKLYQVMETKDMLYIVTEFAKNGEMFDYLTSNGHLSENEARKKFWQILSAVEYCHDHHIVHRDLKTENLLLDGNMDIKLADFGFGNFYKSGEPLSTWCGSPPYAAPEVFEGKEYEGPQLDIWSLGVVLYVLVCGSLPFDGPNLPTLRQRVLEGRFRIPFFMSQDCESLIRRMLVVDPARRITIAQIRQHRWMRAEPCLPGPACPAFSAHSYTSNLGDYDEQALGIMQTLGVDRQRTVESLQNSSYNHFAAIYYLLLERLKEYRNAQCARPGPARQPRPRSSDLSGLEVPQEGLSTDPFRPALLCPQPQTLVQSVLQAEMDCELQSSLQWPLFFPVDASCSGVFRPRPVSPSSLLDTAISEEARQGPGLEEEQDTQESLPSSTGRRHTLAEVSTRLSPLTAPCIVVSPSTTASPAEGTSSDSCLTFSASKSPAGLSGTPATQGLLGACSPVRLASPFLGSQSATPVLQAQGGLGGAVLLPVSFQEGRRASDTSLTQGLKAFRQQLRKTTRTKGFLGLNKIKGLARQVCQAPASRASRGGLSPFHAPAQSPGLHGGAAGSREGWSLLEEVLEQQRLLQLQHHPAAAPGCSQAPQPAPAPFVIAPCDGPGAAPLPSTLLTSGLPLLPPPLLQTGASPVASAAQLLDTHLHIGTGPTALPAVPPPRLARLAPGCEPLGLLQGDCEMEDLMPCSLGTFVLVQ

Row | IC50 (SIK1) [nM] | IC50 (SIK2) [nM] | IC50 (SIK3) [nM] | SMILES
1 | 2800 | 16 | 2 | Cc1ccc(Nc2cnc3c(c2)ncn3-c2ccc(C(C)O)c(-n3nc(C#N)cc3C)c2)nn1 (stereo not drawn) [Example 1, 1-[2-(1-Hydroxyethyl)-5-[6-[(6-methylpyridazin-3-yl)amino]imidazo[4,5-b]pyridin-3-yl]phenyl]-5-methyl-pyrazole-3-carbonitrile]
2 | 616 | 1 | 0.3 | Cc1ccc(Nc2cnc3c(-c4ccc(C(C)O)c(-n5nc(C#N)cc5C)c4)cnn3c2)nn1 (stereo not drawn) [Example 2, 1-[2-(1-Hydroxyethyl)-5-[6-[(6-methylpyridazin-3-yl)amino]pyrazolo[1,5-a]pyrimidin-3-yl]phenyl]-5-methyl-pyrazole-3-carbonitrile]
3 | 16600 | 207 | 27 | Cc1cc(C(F)F)nn1-c1cc(-n2cnc3cc(Nc4cccnn4)cnc32)ccc1C(C)O (stereo not drawn) [Example 3, 1-[2-[3-(Difluoromethyl)-5-methyl-pyrazol-1-yl]-4-[6-(pyridazin-3-ylamino)imidazo[4,5-b]pyridin-3-yl]phenyl]ethanol]
4 | 18600 | 7 | 207 | COc1nc2c(cc1Nc1nnc(C)cc1C(=O)N(C)C)ncn2-c1ccc(C#N)c(-n2nc(OC(F)F)cc2C)c1 [Example 4, 3-[[3-[4-cyano-3-[3-(difluoromethoxy)-5-methyl-pyrazol-1-yl]phenyl]-5-methoxy-imidazo[4,5-b]pyridin-6-yl]amino]-N,N,6-trimethyl-pyridazine-4-carboxamide]
5 | 14600 | 106 | 12 | Cc1ccc(Oc2cnc3c(-c4ccc(C(C)O)c(-n5nc(C#N)cc5C)c4)cnn3c2)nn1 (stereo not drawn) [Example 5, 1-[2-(1-Hydroxyethyl)-5-[6-(6-methylpyridazin-3-yl)oxypyrazolo[1,5-a]pyrimidin-3-yl]phenyl]-5-methylpyrazole-3-carbonitrile]
6 | ≥ 30000 | 152 | 366 | Cc1cc(C(=O)N(C)C)c(Nc2cnc3c(c2)ncn3-c2ccc(C#N)c(-n3nc(OC(F)F)cc3C)c2)nn1 [Example 6, 3-[[3-[4-Cyano-3-[3-(difluoromethoxy)-5-methyl-pyrazol-1-yl]phenyl]imidazo[4,5-b]pyridin-6-yl]amino]-N,N,6-trimethyl-pyridazine-4-carboxamide]
7 | 6010 | 21 | 6 | Cc1ccc(Nc2cnc3c(c2)ncn3-c2cc(F)c(C(C)O)c(-n3nc(C#N)cc3C)c2)nn1 (stereo not drawn) [Example 7, 1-[3-Fluoro-2-(1-hydroxyethyl)-5-[6-[(6-methylpyridazin-3-yl)amino]imidazo[4,5-b]pyridin-3-yl]phenyl]-5-methyl-pyrazole-3-carbonitrile]
8 | ≥ 30000 | 52 | 4 | Cc1ccc(Nc2cnc3c(-c4ccc(C(C)O)c(-n5nc(C(F)F)cc5C)c4)cnn3c2)nn1 (stereo not drawn) [Example 8, 1-[2-[3-(Difluoromethyl)-5-methyl-pyrazol-1-yl]-4-[6-[(6-methylpyridazin-3-yl)amino]pyrazolo[1,5-a]pyrimidin-3-yl]phenyl]ethanol]
